Experimental findings from patent US20220142959A1, “LEUCINE, ACETYL LEUCINE, AND RELATED ANALOGS FOR TREATING DISEASE” (priority 2019, published 2022) are described below.

A short description of data set [1]: CCI induced TBI mice: food intake and body weight. The format is in vivo. The conditions noted are these: data not shown. The procedure: (§1) Controlled cortical impact (CCI) induced TBI was performed in male C57BL6/J mice (20-25 g). Briefly, after a 10-mm midline incision was made over the skull, the skin and fascia were retracted, and a 4-mm craniotomy was made on the central aspect of the left parietal bone of mice under surgical anesthesia (2-3% isoflurane evaporated in a gas mixture containing 70% N20 and 30% 02). Moderate injury was induced in the exposed brain by a custom microprocessor-controlled and compressed air driven pneumatic impactor of 3.5 mm diameter tip with the impact velocity of 6 m/s and a deformation depth of 2 mm.
N-Acetyl-L-Leucine (“NAL” or “NALL”) was dissolved in ethanol to prepare a 50 mg/ml solution which was then diluted in water to give a 10 mg/ml solution. About 0.25 ml of the NAL solution (10 mg/ml) was orally administered in mice at a […] (2.5 mg NAL/25 g mouse) via oral gavage each day after CCI induced TBI for 4 days. Mice were also fed with NAL at 0.5 mg/kg chow powder chow mixed with diet gel for up to 7 days after injury.

For data set [2], the system named is CD68 positive activated microglia. As to the kind of experiment: CD68 positive activated microglia in cerebellum of Npc1−/− mice. The format is in vivo. The conditions noted are these: 59 days of age, compared to Npc1−/− UT. The text has this: FIG. 46 is an image showing cerebellar Purkinje cell loss progressing from anterior to posterior lobes and microglial activation in untreated Npc1^−/− mice and Npc1^−/− mice treated with ADLL, ALL, and ADL. Cerebellums were stained with calbindin-b (Purkinje cells) or CD68 (activated microglia).
FIG. 48 is a scatter graph showing frequency of CD68 positive activated microglia at 59 days of age in untreated Npc1^−/− mice and Npc1^−/− mice treated with ADLL, ALL, and ADL. CD68 cell density was measured in the cerebellum. n=5 animals per group. Mean±SD, *** p<0.0009 (one-way ANOVA).
The combination of increased survival of neurons and a less inflammatory environment in the brain could improve brain function, quality of life, and delay the progression of disease in human subjects.

Data set [3] deals with rat primary cortical neurons (NE and NG cultures). As to the kind of experiment: Truncated tau and neuronal markers in neuron-enriched and neuron-glia cultures. The format is cell-based. The method, then: FIG. 20 is eight Western blots of tau (5E2), synaptophysin and βIII-tubulin in rat primary cortical neurons (neuron-enriched (NE) and neuron-glia (NG) cultures) in the absence and presence of ADLL, ALL, ADL, DLL, LL, DL, and LLE (1 mM, 5 days).
The efficacy of ADLL, ALL, ADL, DLL, LL, DL, and LLE in reducing truncated tau levels in neuron-glia (NG) cultures was investigated. The results of this study are provided in FIGS. 20-24 One aim of this study was to determine whether ADLL, ALL, ADL, DLL, LL, DL, and LLE conferred intrinsic neuroprotection by sustaining neuronal function under conditions of cellular overgrowth, or whether they acted indirectly through the non-autonomous modulation of glial cells. Irrespective of whether the compounds acted directly or indirectly on neurons, preventing the generation of truncated tau confers beneficial effects to neuronal integrity.
Cultures were treated for five days (DIV 9-14) with 1 mM of ADLL, ALL, ADL, DLL, LL, DL, or LLE, and were subsequently assessed for a number of neuron-specific markers that could provide a readout on neuronal health: βIII-tubulin, full-length tau, truncated tau (antibody 5E2) and synaptophysin. ADLL, ALL, ADL, DLL, LL, DL, and LLE were well-tolerated in NE and NG cultures, as evidenced by consistently equal levels of synaptophysin and βIII-tubulin detected across untreated (control) and drug-treated samples (FIGS. 20, 23, and 24). None of ADLL, ALL, ADL, DLL, LL, DL, and LLE reduced basal levels of truncated tau in NG cultures at DIV14 (FIG. 20 and FIG. 22).

Data set [4] relates to rat primary cortical neurons. Put plainly: U18666A-mediated impairment of lysosomal fusion in rat primary cortical neurons. In kind it is cell-based. The conditions noted are these: co-treated with U18666A (2 μg/mL) and compound 1 mM, 24 h. The method, then: FIG. 18. is a histogram of the ratio of LC3-II normalised to βIII tubulin (expressed as a percentage of untreated (n=1)) in rat primary cortical neurons that were treated with U18666A (2 μg/ml, 24 hr) in the absence or presence of ADLL, ALL, ADL, DLL, LL, DL, and LLE (1 mM, 24 hr).
FIG. 19 is histogram of the ratio of APP-CTFs-6 and -7 normalised to their respective CTFs in untreated cells (expressed as a percentage of untreated (n=1) in rat primary cortical neurons that were treated with U18666A (2 μg/ml, 24 hr) in the absence or presence of ADLL, ALL, ADL, DLL, LL, DL, and LLE (1 mM, 24 hr).
The efficacy of ADLL, ALL, ADL, DLL, LL, DL, and LLE in alleviating the U18666A-mediated impairment of autophagosome-lysosome fusion and endosomal lysosomal fusion was investigated. In this cell-based assay of impaired EAL flux, the reappearance of basal levels of APP CTFs-6 and -7, provided an indication of improved endosomal-lysosomal fusion.
Neurons were co-treated with U18666A (2 μg/mL) along with ADLL, ALL, ADL, DLL, LL, DL, and LLE (1 mM, 24 h).

Data set [5] relates to α-fodrin. As to the kind of experiment: Western blot of α-fodrin cleavage products in cortex after CCI induced TBI. In kind it is in vivo, mice. Conditions: NALL fed vs vehicle fed mouse cortices after TBI; oral gavage 10 mg/kg daily 4 days plus chow. The procedure:
as §1, with “mm. […]” for “mm.”
The level of α-fodrin cleavage products in NALL treated, vehicle treated sham, and TBI mouse cortices were determined by Western blot analysis and using the TUNEL assay to assess whether NALL treatment decreases cortical cell death after TBI.
Around 5 mm tissue of ipsilateral cortex around the site of injury from TBI mice or the corresponding tissue of same volume around the same cortical region from sham mice were dissected and processed. […] Protein bands were detected using chemiluminiscence kit (Pierce, 34076) and visualized using Chemi-doc system (Bio-Rad). Band intensity was analyzed using Image Lab software (Bio-Rad) and normalized to loading control (β-Actin). […]

Regarding `CC(=O)N[C@@H](CC(C)C)C(=O)O` [ALL, acetyl-L-leucine], the “change in body weight” value in data set [1] (NALL treated TBI mice) is on record as “no appreciable change”. In data set [1] (sham vs TBI mice fed with NALL), the food intake entry is listed as “No significant difference”. For the same molecule, the “reduction of frequency of CD68 positive activated microglia” value in data set [2] came to 20%. Moreover, the “tolerability (levels of synaptophysin and βIII-tubulin vs untreated control)” value in data set [3] (NE and NG cultures, 1 mM, five days (DIV 9-14)) is on record as “well-tolerated”. For the same molecule, the “reduction of basal levels of truncated tau” value in data set [3] (NG cultures at DIV14, 1 mM, five days) is listed as “None”. In addition, in data set [4], the “CTF-6 and -7 (endosomal-lysosomal fusion)” value was “reappearance of basal amounts”; the LC3-II levels result is on record as “lower than the basal levels”. Moreover, the “level of 145-150 kDa fragments of α-fodrin” value in data set [5] is reported as “lower level”.
